Source: patent US9273304B2, “Inactivation method” (Thermo Fisher Scientific Baltics UAB, priority 2006, dated 2016)

Tests used:
[1] = system: CFTR gene / insulin gene, human DNA; assay: PCR comparison with commercial hot-start Taq DNA polymerases (sensitivity, Fast PCR, extension time); assay type: biochemical
Experimental: Sets of PCR reactions were carried out in the Mastercycler (Eppendorf). The reactions were carried out with the following amounts of DNA polymerases: 0.3125 activity units, 0.625 activity units, 1.25 activity units, and 2.5 activity units. These sets of PCR were performed under conditions optimal for each DNA polymerase. The buffers for both the modified DNA polymerase of the current invention and the unmodified DNA polymerase were described in the Examples 7 and 11, while the buffers for the commercial DNA polymerases were those recommended by the vendors. All experiments were performed in the presence of 0.2 mM dNTP, 0.5 μM of each primers and human DNA (100 ng/50 μl). The PCR primers for amplification of the CFTR gene were described in the Example 8.
The PCR components were mixed at room temperature and the reaction was carried using the following cycling profile: 95° C.—4 min; (95° C.—0.5 min, 50° C.—0.5 min, 72° C.—1 min)—40 cycles; 72° C.—7 min, with the exception of the experiments with the HotStarTaq DNA polymerase, were 15 min pre-incubation at 95° C. was used, as recommended by the vendor.
Amplifications and analysis of reaction products were performed as described in the Example 12. The 1.25 activity units of each polymerase were used in the PCR. The following amounts of human DNA were used as templates in the PCR: 0.1 ng, 1 ng, 10 ng, and 100 ng.
Amplifications and analysis of PCR products were performed as described in the Example 12. The 1.25 activity units of each polymerase were used in the PCR. The set of PCR reactions was carried out at 20, 25, 30, 35 and 40 thermal cycles. respectively.
Sets of PCR reactions were carried out in the GeneAmp® PCR System 9700 (Applied Biosystems). The reactions were carried out with 1 activity unit of DNA polymerases. These sets of PCR reactions were performed in 20 μl of the buffers optimal for each. DNA polymerase. The buffers for the modified Tag polymerase and the unmodified Taq DNA polymerases were described in the Examples 7 and 11, while the buffers for the commercial DNA polymerases were those recommended by the vendors. The following commercial DNA polymerases were chosen for comparison: the FastStart Taq DNA polymerase (Roche), the AmpliTaq Gold DNA polymerase (Applied Biosystems), and the HotStarTaq DNA polymerase (Qiagen). All experiments were performed in the presence of 0.2 mM dNTP, 0.5 μM of each PCR primer and human DNA (40 ng/20 μl). The following primers were used for amplification of the insulin gene: […]
The PCR components were mixed in thin-walled PCR tubes on ice and the 500 bp amplicon was generated using the following reaction profile: 95° C.—30 s; (95° C.—0 s, 62° C.—12 s)—30 cycles; 72° C.—10 s.
Amplifications and analysis of PCR products were performed as described in the Example 12. […]

[2] = system: CFTR gene or insulin gene, human genome DNA as template; assay: PCR specificity and efficiency, mixtures set up at room temperature (CFTR and insulin gene fragments); assay type: biochemical
Experimental: Sets of PCR reactions were carried out in the Mastercycle (Eppendorf). The reactions performed using 2 units of both the unmodified and the modified enzymes. Composition of the buffer used in the experiments with the modified Taq DNA polymerase was described in the Example 7. The unmodified Taq DNA was tested in the buffer of the following compositions: 75 mM Tris-HCl (pH 8.8 at 25° C.), 20 mM (NH4)SO4, 0.01% Tween20. Both buffers were supplemented with 2 mM MgCl2, 0.2 mM dNTP, 0.5 μm of each PCR primer and human DNA (100 ng/50 μl). For amplification of 950 by DNA fragment of the CFTR gene, the same set of PCR primers was used as described in the Example 8. A 400 bp fragment of the insulin gene was amplified with the following set of PCR primers: […]
The components of PCR were mixed at room temperature and the reactions were performed using the following cycling profiles: • 1. For the 950 bp amplicon: 95° C.—5 min; (95° C.—[…], 50° C.—0.5 min, 72° C.—1 min)—40 cycles; 72° C.—7 min. • 2. For the 400 bp amplicon: 95° C.—5 min; (95° C.—0.5 min, 65° C.—0.5 min, 72° C.—1 min)—40 cycles; 72° C.—7 min.
After completion of PCR, the samples were mixed with aliquots (10 μl) of the 6× MassRuller™ Loading Dye (Fermentas), and the samples were analyzed by gel electrophoresis in 1.7% agarose. The Gene Ruler™ 100 bp DNA Ladder Plus (Fermentas) was used for evaluation of the amplicon size. Electrophoresis was performed in the TBE buffer (89 mM Tris, 89 mM H3BO3, and 1 mM EDTA) at 5 V/cm for 75 min. After completion of electrophoresis, gels were stained with ethidium bromide (0.5 μg/ml). Then, gels were destained in MiliQ-quality water for 20 minutes. DNA bands were visualized under UV.

Substance: Taq DNA polymerase modified with N-etoxycarbonyl-2,3-dimethylmaleinimide: Recombinant Taq DNA polymerase reversibly inactivated by reaction with N-ethoxycarbonyl-2,3-dimethylmaleinimide in aqueous solution (preferred molar ratio 1/110)
- performance in the “Fast PCR” application, compared with DNA polymerases from other vendors ([1]; FIG. 14): superior performance
- primer extension time, compared with DNA polymerases from other vendors ([1]; FIG. 15): shorter
- PCR sensitivity regarding the enzyme concentration, compared with DNA polymerases from other vendors ([1]; versus HotStarTaq, AmpliTaq Gold, FastStart Taq, FIG. 11): higher sensitivity
- PCR sensitivity regarding the target DNA concentration, compared with DNA polymerases from other vendors ([1]; versus HotStarTaq, AmpliTaq Gold, FastStart Taq, FIG. 12): higher sensitivity
- yield of unspecific PCR byproducts versus unmodified DNA polymerase ([2]; CFTR and insulin gene fragments, PCR set up at room temperature, FIG. 10): lesser yield
- yield of the byproducts caused by the primer dimerization versus unmodified DNA polymerase ([2]; insulin gene 400 bp fragment): lower
- yield of the insulin amplicon versus unmodified DNA polymerase ([2]; insulin gene 400 bp fragment): higher yield
